According to PubChem BioAssay (NCI):
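Growth conditions: 96-well plates. Treatment: test compound, 48 hours, 5 concentrations. Analysis: linear interpolation between bracketing concentrations; unreached endpoints set to highest concentration. TGI denotes the concentration required for complete inhibition of growth.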

How the values were obtained:
Test in all cases: NCI tumour cell line growth inhibition, 48 h
786-0 renal = test system: 786-0 renal
A549 NSCLC = test system: A549 NSCLC
CCRF-CEM leukemia = test system: CCRF-CEM leukemia
HL-60(TB) leukemia = test system: HL-60(TB) leukemia
HOP-62 NSCLC = test system: HOP-62 NSCLC
HS 578T breast = test system: HS 578T breast
HT29 colon = test system: HT29 colon
IGROV1 ovarian = test system: IGROV1 ovarian
K-562 leukemia = test system: K-562 leukemia
NCI-H226 lung = test system: NCI-H226 lung
NCI-H460 lung = test system: NCI-H460 lung
NCI-H522 lung = test system: NCI-H522 lung
OVCAR-3 ovarian = test system: OVCAR-3 ovarian
OVCAR-5 ovarian = test system: OVCAR-5 ovarian
SK-MEL-28 melanoma = test system: SK-MEL-28 melanoma
SW-620 colon = test system: SW-620 colon
TK-10 renal = test system: TK-10 renal
PC-3 prostate = test system: PC-3 prostate
SK-OV-3 ovarian = test system: SK-OV-3 ovarian

Row | SMILES | TGI (786-0 renal) | TGI (A549 NSCLC) | TGI (CCRF-CEM leukemia) | TGI (HL-60(TB) leukemia) | TGI (HOP-62 NSCLC) | TGI (HS 578T breast) | TGI (HT29 colon) | TGI (IGROV1 ovarian) | TGI (K-562 leukemia) | TGI (NCI-H226 lung) | TGI (NCI-H460 lung) | TGI (NCI-H522 lung) | TGI (OVCAR-3 ovarian) | TGI (OVCAR-5 ovarian) | TGI (SK-MEL-28 melanoma) | TGI (SW-620 colon) | TGI (TK-10 renal) | TGI (PC-3 prostate) | TGI (SK-OV-3 ovarian)
1 | CN(C)c1ccc(S(=O)Nc2ccccc2)cc1 (configuration not stated) | > 100 µM | > 100 µM | > 100 µM | > 100 µM | > 100 µM | > 100 µM | > 100 µM | > 100 µM | > 100 µM | > 100 µM | > 100 µM | > 100 µM | > 100 µM | > 100 µM | > 100 µM | > 100 µM | > 100 µM |  | 
2 | CCOC(=O)Cn1c(=O)c2nc(SC)sc2n(-c2ccccc2)c1=O | > 100 µM | > 100 µM | > 100 µM | > 100 µM | > 100 µM | > 100 µM | > 100 µM | > 100 µM | > 100 µM | > 100 µM | > 100 µM |  |  | > 100 µM | > 100 µM | > 100 µM | > 100 µM | > 100 µM | 
3 | O=C(CC(C(=O)c1ccsc1)c1ccc2c(c1)OCO2)c1ccccc1 (configuration not stated) | > 100 µM | 50.7 µM | > 100 µM | > 100 µM | > 100 µM | > 100 µM | > 100 µM | > 100 µM | > 100 µM | > 100 µM | > 100 µM | > 100 µM | > 100 µM | > 100 µM | > 100 µM | > 100 µM | > 100 µM |  | > 100 µM
4 | CCCCC(C(=O)NCCNC(=O)CCC(=O)N(C)O)C(=O)NCCNC(=O)CCC(=O)N(C)O | > 100 µM | > 100 µM | > 100 µM | > 100 µM | > 100 µM |  | > 100 µM | > 100 µM | > 100 µM | > 100 µM | > 100 µM | > 100 µM | > 100 µM | > 100 µM | > 100 µM | > 100 µM | > 100 µM | > 100 µM | > 100 µM
5 | CCOC(=O)c1ccc(NCC#CCN2CCOCC2)cc1 | > 100 µM | > 100 µM | > 100 µM | > 100 µM | > 100 µM | > 100 µM | > 100 µM | > 100 µM | > 100 µM | > 100 µM |  |  | > 100 µM | > 100 µM | > 100 µM | > 100 µM |  | > 100 µM | > 100 µM
6 | O=C(O)CCC(=O)OC1N=C(c2ccccc2Cl)c2cc([N+](=O)[O-])ccc2NC1=O (configuration not stated) | > 100 µM | > 100 µM | > 100 µM | > 100 µM | > 100 µM | > 100 µM | > 100 µM | > 100 µM |  |  | > 100 µM | > 100 µM | > 100 µM | > 100 µM | > 100 µM | > 100 µM | > 100 µM | > 100 µM | > 100 µM
7 | COc1cccc(CCCNC(=O)Cc2cc(OC)c(OC)cc2CO)c1 | > 100 µM | > 100 µM | > 100 µM | > 100 µM | > 100 µM | > 100 µM | > 100 µM | > 100 µM | > 100 µM | > 100 µM | > 100 µM |  | > 100 µM | > 100 µM | > 100 µM | > 100 µM | > 100 µM | > 100 µM | 
8 | CN(C)C1(N(C)C)Oc2c(c(=O)n(C)c(=O)n2C)C(c2ccc(Br)cc2)C1(F)F (configuration not stated) | > 100 µM | > 100 µM | > 100 µM |  | > 100 µM |  |  |  |  | > 100 µM | > 100 µM |  | > 100 µM | > 100 µM | > 100 µM | > 100 µM | > 100 µM | > 100 µM | > 100 µM
9 | CC1CCC(C(=O)O)(C(Br)C(=O)O)CC1 (configuration not stated) | > 100 µM | > 100 µM | > 100 µM | > 100 µM | > 100 µM |  | > 100 µM | > 100 µM | > 100 µM | > 100 µM | > 100 µM |  | > 100 µM | > 100 µM | > 100 µM | > 100 µM | > 100 µM | > 100 µM | 
10 | O=c1[nH]c(=O)n(C2OC(CO)C(O)C2O)c2nc(-c3ccc(-c4ccccc4)cc3)cnc12 (configuration not stated) | > 100 µM | > 100 µM | > 100 µM |  | > 100 µM | > 100 µM | > 100 µM | > 100 µM | > 100 µM | > 100 µM | > 100 µM | > 100 µM |  | > 100 µM |  | > 100 µM | > 100 µM | > 100 µM | > 100 µM
11 | COc1ccc2c(c1)OCC1Cc3ccccc3OC21 (configuration not stated) | > 100 µM | > 100 µM | > 100 µM | > 100 µM | > 100 µM |  | > 100 µM | > 100 µM | > 100 µM | > 100 µM |  | > 100 µM | > 100 µM | > 100 µM |  | > 100 µM | > 100 µM | > 100 µM | > 100 µM
12 | Cc1cc2c3c(nc4ccccc42)C(=O)c2ccccc2-c3n1 | > 100 µM | 44.9 µM | 73.3 µM |  | 23.5 µM | 46.7 µM | 60.2 µM | > 100 µM | 15.1 µM | 67 µM |  | 14.4 µM | 0.906 µM | > 100 µM | 43.3 µM | 35.9 µM | > 100 µM | 80.9 µM | 84 µM
13 | Oc1ccc([I+]c2ccccc2)cc1O | > 100 µM | 65.5 µM | 60.4 µM | 47.1 µM | > 100 µM | > 100 µM | > 100 µM | > 100 µM | 54.3 µM | > 100 µM | > 100 µM | > 100 µM | > 100 µM | > 100 µM | > 100 µM | 37.1 µM | > 100 µM | 64.1 µM | 
14 | CCNC(=O)Cc1nc2c(N)ncnc2n1C1OC(CO)C(O)C1O (configuration not stated) | > 100 µM | > 100 µM |  | > 100 µM | > 100 µM | > 100 µM | > 100 µM | > 100 µM | > 100 µM | > 100 µM | > 100 µM | > 100 µM | > 100 µM |  | > 100 µM | > 100 µM | > 100 µM | > 100 µM | > 100 µM
